Several values for one entry are separate records, joined by “and”; a condition that tells them apart may be missing. Identical values can stand only once.
Test system: 233499-124-R-J3-PDC complex spheroid growth
Test: Anticancer human tumor 233499-124-R-J3-PDC patient-derived colon adenocarcinoma cell line growth inhibition [AhR]
Settings: for viability, T/C: stronger effect = lower value
Outline: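 Complex tumor spheroids co-cultured with HUVEC and human MSC stroma; AhR antagonists tested in combination with standard-of-care and investigational agents. Top concentration at or near clinical Cmax (else 10 microM), half-log dilutions; growth expressed as percent test/control.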

[1] = curve of first compound, second compound 0.1 µM
[2] = curve of first compound, second compound 0.316 µM
[3] = curve of first compound, second compound 1 µM
[4] = curve of first compound, second compound 3.16 µM
[5] = curve of first compound, second compound 10 µM
[6] = second compound 0.1 µM, first compound 0.0316 µM
[7] = second compound 0.1 µM, first compound 0.1 µM
[8] = second compound 0.1 µM, first compound 0.316 µM
[9] = second compound 0.1 µM, first compound 1 µM
[10] = second compound 0.316 µM, first compound 0.0316 µM
[11] = second compound 0.316 µM, first compound 0.1 µM
[12] = second compound 0.316 µM, first compound 0.316 µM
[13] = second compound 0.316 µM, first compound 1 µM
[14] = second compound 1 µM, first compound 0.0316 µM
[15] = second compound 1 µM, first compound 0.1 µM
[16] = second compound 1 µM, first compound 0.316 µM
[17] = second compound 1 µM, first compound 1 µM
[18] = second compound 3.16 µM, first compound 0.0316 µM
[19] = second compound 3.16 µM, first compound 0.1 µM
[20] = second compound 3.16 µM, first compound 0.316 µM
[21] = second compound 3.16 µM, first compound 1 µM
[22] = second compound 10 µM, first compound 0.0316 µM
[23] = second compound 10 µM, first compound 0.1 µM
[24] = second compound 10 µM, first compound 0.316 µM
[25] = second compound 10 µM, first compound 1 µM
[26] = second compound 0.1 µM, first compound 3.16 µM
[27] = second compound 0.1 µM, first compound 10 µM
[28] = second compound 0.316 µM, first compound 3.16 µM
[29] = second compound 0.316 µM, first compound 10 µM
[30] = second compound 1 µM, first compound 3.16 µM
[31] = second compound 1 µM, first compound 10 µM
[32] = second compound 3.16 µM, first compound 3.16 µM
[33] = second compound 3.16 µM, first compound 10 µM
[34] = second compound 10 µM, first compound 3.16 µM
[35] = second compound 10 µM, first compound 10 µM
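Note: spheroids exposed to agents for seven days before reading.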

| SMILES | IC50 [1] | IC50 [2] | IC50 [3] | IC50 [4] | IC50 [5] | viability, T/C [6] | viability, T/C [7] | viability, T/C [8] | viability, T/C [9] | viability, T/C [10] | viability, T/C [11] | viability, T/C [12] | viability, T/C [13] | viability, T/C [14] | viability, T/C [15] | viability, T/C [16] | viability, T/C [17] | viability, T/C [18] | viability, T/C [19] | viability, T/C [20] | further results |
| --- | --- | --- | --- | --- | --- | --- | --- | --- | --- | --- | --- | --- | --- | --- | --- | --- | --- | --- | --- | --- | --- |
| CC1COCCN1c1cc(-c2ccnn2C)c2ccnc(-c3ccn[nH]3)c2n1 (configuration not stated) + CC(CO)NC(=O)c1cc(-c2ccc(Cl)cc2)nn(-c2cnn(C)c2)c1=O | 0.516 µM | 0.609 µM | 0.547 µM | 0.65 µM | 0.23 µM | 89.1% | 83.9% | 63% | 31.7% | 90.3% | 84.9% | 68.1% | 36.5% | 97.9% | 82.5% | 60.8% | 38.2% | 87.2% | 85.6% | 60.8% | viability, T/C (second compound 0.1 µM, first compound 0.00316 µM): 97.6%; viability, T/C (second compound 0.1 µM, first compound 0.01 µM): 95.3%; viability, T/C (second compound 0.316 µM, first compound 0.00316 µM): 90.3%; viability, T/C (second compound 0.316 µM, first compound 0.01 µM): 102%; viability, T/C (second compound 1 µM, first compound 0.00316 µM): 106%; viability, T/C (second compound 1 µM, first compound 0.01 µM): 101%; viability, T/C (second compound 3.16 µM, first compound 0.00316 µM): 81.9%; viability, T/C (second compound 3.16 µM, first compound 0.01 µM): 86.9%; viability, T/C [21]: 43.6%; viability, T/C (second compound 10 µM, first compound 0.00316 µM): 83.3%; viability, T/C (second compound 10 µM, first compound 0.01 µM): 90%; viability, T/C [22]: 80.8%; viability, T/C [23]: 59%; viability, T/C [24]: 49%; viability, T/C [25]: 33.4% |
| CC1(C)CCC(CN2CCN(c3ccc(C(=O)NS(=O)(=O)c4ccc(NCC5CCOCC5)c([N+](=O)[O-])c4)c(Oc4cnc5[nH]ccc5c4)c3)CC2)=C(c2ccc(Cl)cc2)C1 + CC(CO)NC(=O)c1cc(-c2ccc(Cl)cc2)nn(-c2cnn(C)c2)c1=O | 6.82 µM | 7.05 µM | 6.78 µM | 6.62 µM | 6.5 µM | 99.8% | 89.7% | 97.5% | 102% | 94.5% | 91.2% | 91.1% | 90.7% | 97.4% | 96.5% | 90.7% | 104% | 97.5% | 92.1% | 94.5% | viability, T/C [26]: 108%; viability, T/C [27]: 25.3%; viability, T/C [28]: 109%; viability, T/C [29]: 30.4%; viability, T/C [30]: 103%; viability, T/C [31]: 25.5%; viability, T/C [21]: 106%; viability, T/C [32]: 96.8%; viability, T/C [33]: 23.8%; viability, T/C [22]: 79.2%; viability, T/C [23]: 89.5%; viability, T/C [24]: 86.8%; viability, T/C [25]: 90.9%; viability, T/C [34]: 92.9%; viability, T/C [35]: 27.4% |
| CC1COCCN1c1cc(C2(S(C)(=N)=O)CC2)nc(-c2ccnc3[nH]ccc23)n1 (configuration not stated) + Cc1ccccc1N=Nc1ccc(NC(=O)c2ccnn2C)c(C)c1 | > 10 µM | > 10 µM | > 10 µM | > 10 µM | > 10 µM | 103% | 112% | 91.2% | 97.8% | 113% | 107% | 94.5% | 99.7% | 103% | 100% | 104% | 97.6% | 112% | 110% | 105% | viability, T/C [26]: 88.8%; viability, T/C [27]: 91%; viability, T/C [28]: 96.6%; viability, T/C [29]: 85%; viability, T/C [30]: 77.7%; viability, T/C [31]: 74.2%; viability, T/C [21]: 101%; viability, T/C [32]: 99.7%; viability, T/C [33]: 84.1%; viability, T/C [22]: 108%; viability, T/C [23]: 107%; viability, T/C [24]: 118%; viability, T/C [25]: 106%; viability, T/C [34]: 109%; viability, T/C [35]: 77.8% |
| CC1COCCN1c1cc(C2(S(C)(=N)=O)CC2)nc(-c2ccnc3[nH]ccc23)n1 (configuration not stated) | – | – | – | – | – | – | – | – | – | – | – | – | – | – | – | – | – | – | – | – | viability, T/C (compound 0.0316 µM): 103% and 90.3% and 112%; viability, T/C (compound 0.1 µM): 108% and 97% and 92.9%; viability, T/C (compound 0.316 µM): 92.2% and 95% and 95.2%; viability, T/C (compound 1 µM): 105% and 97.5% and 94.2%; viability, T/C (compound 3.16 µM): 89.7% and 90.8% and 96.2%; viability, T/C (compound 10 µM): 91.8% and 83.7% and 83.1%; IC50 (curve of compound): > 10 µM |

Source: PubChem BioAssay AID1918993 (Molecular Pharmacology Branch, DTP, NCI, 2023)
